How the values were obtained:
[1] = tested on: barnyardgrass; experiment: Test A preemergence; type: in vivo, Echinochloa crus-galli; settings: for Barnyardgrass plant response rating (0 to 100 scale, 0 is no effect, 100 is complete control): visual injury approx. 10 days after treatment
Outline: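 Greenhouse test in loam soil/sand blend; compounds formulated in non-phytotoxic solvent with surfactant, applied as preemergence directed soil spray or postemergence to plants 2–10 cm tall at one- to two-leaf stage. Injury rated visually versus untreated controls after approximately 10 days on a 0 (no effect) to 100 (complete control) scale.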

[2] = tested on: corn; experiment: Test C postemergence; type: in vivo, Zea mays; settings: for Corn plant response rating: scale 0 to 100; for Plant response rating (scale of 0 to 100 where 0 is no effect and 100 is complete control), Corn: visually evaluated after 13 to 15 days
Outline: (§1)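 Visual rating, 0–100 scale (0 no effect, 100 complete control), vs untreated controls after 13–15 d greenhouse. Pre: seeds in loam/sand, treated at sowing. Post: plants in peat-based mix, 1- to 4-leaf (2–18 cm). Solvent + surfactant formulation, non-phytotoxic.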

[3] = tested on: ragweed; experiment: Test C postemergence; type: in vivo, Ambrosia elation; settings: for Plant response rating, Ragweed / Ragweed plant response rating: postemergence; for Ragweed plant response rating: scale 0 to 100; for Plant response rating (scale of 0 to 100 where 0 is no effect and 100 is complete control), Ragweed: Postemergence, 31 g ai/ha, visually evaluated after 13 to 15 days
Outline: as §1

[4] = tested on: rice; experiment: Test C flooded paddy test; type: in vivo, Oryza sativa; settings: Flood
Outline: (§2)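 Visual injury ratings against untreated controls, taken 13 to 15 days after compound was added to paddy water standing 3 cm above the soil.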

[5] = tested on: sedge, umbrella; experiment: Test C flooded paddy test; type: in vivo, Cyperus difformis; settings: Flood
Outline: as §2

[6] = tested on: ducksalad; experiment: Test C flooded paddy test; type: in vivo, Heteranthera limosa; settings: Flood
Outline: as §2

[7] = tested on: barnyardgrass; experiment: Test C flooded paddy test; type: in vivo, Echinochloa crus-galli; settings: Flood
Outline: as §2

[8] = Preemergence, 500 g ai/ha, 0 to 100 scale, 0 no effect, 100 complete control
[9] = preemergence, 125 g ai/ha, visual injury, 0 to 100 scale, approx. 10 days
[10] = postemergence, 250 g ai/ha, scale 0 to 100 (0 no effect, 100 complete control)
[11] = postemergence, 125 g ai/ha, scale 0 to 100, 0 no effect, 100 complete control
[12] = 250 g ai/ha, scale 0 to 100 (0 no effect, 100 complete control)
[13] = 125 g ai/ha, scale 0 to 100, 0 no effect, 100 complete control
[14] = 31 g ai/ha, scale 0 to 100 (0 no effect, 100 complete control)
[15] = 62 g ai/ha, scale 0 to 100 (0 no effect, 100 complete control)
[16] = preemergence, 500 g ai/ha, visual injury after approx. 10 days, 0 to 100 scale (0 no effect, 100 complete control)

| Compound | Barnyardgrass plant response rating [1, 9] | Plant response rating, Corn [2, 10] | Plant response rating, Corn [2, 11] | Plant response rating, Ragweed [3, 12] | Plant response rating, Ragweed [3, 13] | Corn plant response rating ([2]; postemergence, 62 g ai/ha) | Barnyardgrass plant response rating [1, 16] | Plant response rating (scale of 0 to 100 where 0 is no effect and 100 is complete control), Corn ([2]; Postemergence, 31 g ai/ha) | Barnyardgrass plant response rating (0 to 100 scale, 0 is no effect, 100 is complete control) ([1]; preemergence, 125 g ai/ha) | other results |
| --- | --- | --- | --- | --- | --- | --- | --- | --- | --- | --- |
| CCc1cc(C(=O)NOC(C)C)nn1Cc1cccc(OC(F)(F)F)c1 [Compound 70] | 80 | 50 | 45 | 65 | 65 |  |  |  |  | Barnyardgrass plant response rating [1, 8]: 100; Corn plant response rating ([2]; Postemergence, 31 g ai/ha): 10; Plant response rating, Corn ([2]; postemergence, 62 g ai/ha, scale 0 to 100, 0 no effect, 100 complete control): 40; Plant response rating, Ragweed ([3]; 62 g ai/ha, scale 0 to 100, 0 no effect, 100 complete control): 60; Plant response rating, Rice [4, 14]: 0; Plant response rating, Rice [4, 15]: 0; Plant response rating, Rice ([4]; 125 g ai/ha, scale 0 to 100): 25; Plant response rating, Rice ([4]; 250 g ai/ha, scale 0 to 100): 50; Plant response rating, Sedge, Umbrella [5, 14]: 75; Plant response rating, Sedge, Umbrella [5, 15]: 75; Plant response rating, Sedge, Umbrella ([5]; 125 g ai/ha, scale 0 to 100): 85; Plant response rating, Sedge, Umbrella ([5]; 250 g ai/ha, scale 0 to 100): 90; Plant response rating, Ducksalad [6, 14]: 30; Plant response rating, Ducksalad [6, 15]: 40; Plant response rating, Ducksalad ([6]; 125 g ai/ha, scale 0 to 100): 85; Plant response rating, Ducksalad ([6]; 250 g ai/ha, scale 0 to 100): 85; Plant response rating, Barnyardgrass [7, 14]: 0; Plant response rating, Barnyardgrass [7, 15]: 0; Plant response rating, Barnyardgrass ([7]; 125 g ai/ha, scale 0 to 100): 45; Plant response rating, Barnyardgrass ([7]; 250 g ai/ha, scale 0 to 100): 65 |
| CCONC(=O)c1cc(CC)n(Cc2cccc(OC(F)(F)F)c2)n1 [Compound 72] | 90 | 60 | 10 | 35 | 20 | 10 |  |  |  | Barnyardgrass plant response rating [1, 8]: 100; Corn plant response rating ([2]; Postemergence, 31 g ai/ha): 10; Ragweed plant response rating ([3]; 62 g ai/ha): 5; Plant response rating, Rice [4, 14]: 0; Plant response rating, Rice [4, 15]: 0; Plant response rating, Rice ([4]; 125 g ai/ha, scale 0 to 100): 0; Plant response rating, Rice ([4]; 250 g ai/ha, scale 0 to 100): 30; Plant response rating, Sedge, Umbrella [5, 14]: 50; Plant response rating, Sedge, Umbrella [5, 15]: 60; Plant response rating, Sedge, Umbrella ([5]; 125 g ai/ha, scale 0 to 100): 65; Plant response rating, Sedge, Umbrella ([5]; 250 g ai/ha, scale 0 to 100): 65; Plant response rating, Ducksalad [6, 14]: 0; Plant response rating, Ducksalad [6, 15]: 70; Plant response rating, Ducksalad ([6]; 125 g ai/ha, scale 0 to 100): 75; Plant response rating, Ducksalad ([6]; 250 g ai/ha, scale 0 to 100): 75; Plant response rating, Barnyardgrass [7, 14]: 0; Plant response rating, Barnyardgrass [7, 15]: 20; Plant response rating, Barnyardgrass ([7]; 125 g ai/ha, scale 0 to 100): 20; Plant response rating, Barnyardgrass ([7]; 250 g ai/ha, scale 0 to 100): 20 |
| Cc1cc(C(=O)NCC(F)(F)F)nn1Cc1ccnc(C(F)(F)F)c1 [Compound 74] |  | 55 | 20 | 70 |  | 10 |  |  |  | Barnyardgrass plant response rating ([1]; Preemergence, 1000 g ai/ha, 0 to 100 scale, 0 no effect, 100 complete control): 100; Corn plant response rating ([2]; Postemergence, 31 g ai/ha): 10; Ragweed plant response rating ([3]; 62 g ai/ha): 45; Plant response rating, Rice [4, 14]: 0; Plant response rating, Rice [4, 15]: 15; Plant response rating, Rice ([4]; 125 g ai/ha, scale 0 to 100): 15; Plant response rating, Rice ([4]; 250 g ai/ha, scale 0 to 100): 15; Plant response rating, Sedge, Umbrella [5, 14]: 0; Plant response rating, Sedge, Umbrella [5, 15]: 0; Plant response rating, Sedge, Umbrella ([5]; 125 g ai/ha, scale 0 to 100): 0; Plant response rating, Sedge, Umbrella ([5]; 250 g ai/ha, scale 0 to 100): 90; Plant response rating, Ducksalad [6, 14]: 0; Plant response rating, Ducksalad [6, 15]: 0; Plant response rating, Ducksalad ([6]; 125 g ai/ha, scale 0 to 100): 0; Plant response rating, Ducksalad ([6]; 250 g ai/ha, scale 0 to 100): 90; Plant response rating, Barnyardgrass [7, 14]: 0; Plant response rating, Barnyardgrass [7, 15]: 15; Plant response rating, Barnyardgrass ([7]; 125 g ai/ha, scale 0 to 100): 15; Plant response rating, Barnyardgrass ([7]; 250 g ai/ha, scale 0 to 100): 15 |
| CCCNC(=O)c1cc(OCC)n(Cc2ccnc(OC(F)F)c2)n1 [Compound 136] | 100 | 25 | 15 | 70 | 40 | 10 | 100 | 10 |  | Plant response rating (scale of 0 to 100 where 0 is no effect and 100 is complete control), Ragweed [3]: 15; Ragweed plant response rating ([3]; 62 g ai/ha): 35 |
| O=C(NC1CC1)c1cc(CCCl)n(Cc2ccnc(C(F)(F)F)c2)n1 [Compound 144] | 100 | 25 | 15 | 75 | 35 | 10 | 100 | 5 |  | Plant response rating (scale of 0 to 100 where 0 is no effect and 100 is complete control), Ragweed [3]: 10 |
| CCOc1cc(C(=O)NOC(C)C)nn1Cc1ccnc(C(F)(F)F)c1 [Compound 153] | 90 | 20 | 30 | 85 | 40 | 10 | 100 | 5 |  |  |
| CCNC(=O)c1cc(CC)n(Cc2cc(C(F)(F)F)nn2C)n1 [Compound 154] | 90 | 10 | 10 | 35 | 15 | 5 | 100 | 5 |  |  |
| CCCc1cc(C(=O)NC(C)C)nn1Cc1ccnc(C(F)(F)F)c1 [Compound 186] |  | 65 | 75 | 70 | 55 | 40 | 100 | 5 | 100 |  |
| CCCNC(=O)c1cc(OCC)n(Cc2ccnc(C(F)(F)F)c2)n1 [Compound 187] |  | 65 | 60 | 85 | 50 | 5 | 100 | 5 | 90 |  |
| CCCc1cc(C(=O)NC(C)C)nn1Cc1cc(C(F)(F)F)nn1C [Compound 201] |  | 60 | 15 | 85 | 60 | 10 | 100 | 10 | 100 |  |
| CCCc1cc(C(=O)NC2CC2)nn1Cc1cc(C(F)(F)F)nn1C [Compound 202] |  | 25 | 15 | 80 | 65 | 10 | 100 | 5 | 90 |  |
| CCc1cc(C(=O)NCC(F)(F)F)nn1Cc1ccnc(SC(F)(F)F)c1 [Compound 214] |  | 10 | 5 | 70 | 35 | 5 | 100 | 0 | 100 |  |
| CCc1cc(C(=O)NC2CC2)nn1Cc1ccnc(Br)c1 [Compound 220] |  | 10 | 5 | 45 | 50 | 5 | 100 | 5 | 80 |  |
| CCc1cc(C(=O)NCC(F)(F)F)nn1Cc1ccnc(Br)c1 [Compound 224] |  | 10 | 10 | 35 | 10 | 5 | 100 | 5 | 90 |  |

Reference: patent US20150105252A1, “SUBSTITUTED PYRAZOLES AS HERBICIDES” (E I DU PONT DE NEMOURS AND COMPANY, priority 2013, published 2015)
